From patent publication US10150774B2, “Compounds and methods” (INTRA-CELLULAR THERAPIES, INC., priority 2014, dated 2018)

Each compound was assayed on PDE1 (assay: Measurement of PDEIB inhibition in vitro using IMAP phosphodiesterase assay kit).
Format: biochemical, bovine or human
Text: Example 10: Measurement of PDEIB Inhibition in Vitro Using IMAP Phosphodiesterase Assay Kit
Phosphodiesterase I B (PDEIB) is a calcium/calmodulin dependent phosphodiesterase enzyme that converts cyclic guanosine monophosphate (cGMP) to 5′-guanosine monophosphate (5′-GMP). PDEIB can also convert a modified cGMP substrate, such as the fluorescent molecule cGMP-fluorescein, to the corresponding GMP-fluorescein. The generation of GMP-fluorescein from cGMP-fluorescein can be quantitated, using, for example, the IMAP (Molecular Devices, Sunnyvale, Calif.) immobilized-metal affinity particle reagent.
Briefly, the IMAP reagent binds with high affinity to the free 5′-phosphate that is found in GMP-fluorescein and not in cGMP-fluorescein. The resulting GMP-fluorescein-IMAP complex is large relative to cGMP-5 fluorescein. Small fluorophores that are bound up in a large, slowly tumbling, complex can be distinguished from unbound fluorophores, because the photons emitted as they fluoresce retain the same polarity as the photons used to excite the fluorescence.
In the phosphodiesterase assay, cGMP-fluorescein, which cannot be bound to IMAP, and therefore retains little fluorescence polarization, is converted to GMPfluorescein, which, when bound to IMAP, yields a large increase in fluorescence polarization (mp). Inhibition of phosphodiesterase, therefore, is detected as a decrease in mp.
Materials: All chemicals are available from Sigma-Aldrich (St. Louis, Mo.) except for IMAP reagents (reaction buffer, binding buffer, FL-GMP and IMAP beads), which are available from Molecular Devices (Sunnyvale, Calif.).
Assay: The following phosphodiesterase enzymes may be used: 3′,5′-cyclic-nucleotide specific bovine brain phosphodiesterase (Sigma, St. Louis, Mo.) (predominantly PDEIB) and recombinant full length human PDE1 A and PDE1B (r-hPDE1 A and r-hPDE1B respectively) which may be produced e.g., in HEK or SF9 cells by one skilled in the art. The PDE1 enzyme is reconstituted with 50% glycerol to 2.5 U/mL. One unit of enzyme will hydrolyze 1.0 μmol of 3′,5′-cAMP to 5′-AMP per min at pH 7.5 at 30° C. […]
The FL-GMP conversion reaction is initiated by combining 4 parts enzyme and inhibitor mix with 1 part substrate solution ([…]) in a 384-well microtiter plate. […] The plate is incubated at room temperature for 1 hour to allow IMAP binding to proceed to completion, and then placed in an Envision multimode microplate reader (PerkinElmer, Shelton, Conn.) to measure the fluorescence polarization (mp).
A decrease in GMP concentration, measured as decreased mp, is indicative of inhibition of PDE activity.

| Compound | selectivity for PDE1 |
| --- | --- |
| CN1C(=O)c2c(nn(Cc3ccc(-c4ccccn4)cc3)c2Nc2ccc(F)cc2)N2CC(C)(C)N=C12 [Example 1, 7,8-Dihydro-2-(4-(pyridine-2-yl)benzyl)-3-(4-fluorophenylamino)-5,7,7-trimethyl-[2H]-imidazo-[1,2-a]pyrazolo[4,3-e]pyrimidin-4(5H)-one] | good selectivity |
| CCc1c2c(nn1Cc1ccc(-c3ccc(F)cn3)cc1)N1CC(C)(C)N=C1N(C)C2=O [Example 5, 7,8-Dihydro-2-(4-(5-fluoropyridin2-yl)benzyl)-3-ethyl-5,7,7-trimethyl-[2H]-imidazo-[1,2-a]pyrazolo[4,3-e]pyrimidin-4(5H)-one] | good selectivity |
| CCCc1c2c(nn1Cc1ccc(-c3ccc(F)cn3)cc1)N1CC(C)(C)N=C1N(C)C2=O [Example 7, 7,8-Dihydro-2-(4-(5-fluoropyridin2-yl)benzyl)-3-propyl-5,7,7-trimethyl-[2H]-imidazo-[1,2-a]pyrazolo[4,3-e]pyrimidin-4(5H)-one] | good selectivity |
| CN1C(=O)c2c(nn(Cc3ccc(Cl)cc3)c2Nc2ccc(F)cc2)N2CC(C)(C)N=C12 [Example 9, 7,8-Dihydro-2-(4-chlorobenzyl)-3-(4-fluorophenylamino)-5,7,7-trimethyl-[2H]-imidazo-[1,2-a]pyrazolo[4,3-e]pyrimidin-4(5H)-one] | good selectivity |
